Results on 1 molecule are retold here after patent US6004960A, “Pyridazinones as inhibitors of cyclooxygenase-2” (Merck Frosst Canada, Inc., priority 1998, dated 1999).

The target in experiment [1] is COX-1 (Homo sapiens, UniProt P23219). Briefly: Human whole blood assay, COX-1 (clotting-induced TxB2 production). The format is cell-based. Also on record: platelets in whole blood contain a large amount of the COX-1 enzyme; from tissue; host or cells: fresh human whole blood (platelets), allowed to clot. The settings on record: clotting-induced TxB2, 1 hour at 37° C, read-out: COX-1 (IC50 μM) HWB. On the procedure:
Human whole blood provides a protein and cell-rich milieu appropriate for the study of biochemical efficacy of anti-inflammatory compounds such as selective COX-2 inhibitors. […] This is consistent with the observation that COX-2 inhibitors have no effect on PGE2 production in normal blood. These inhibitors are active only after incubation of human whole blood with LPS, which induces COX-2. This assay can be used to evaluate the inhibitory effect of selective COX-2 inhibitors on PGE2 production. As well, platelets in whole blood contain a large amount of the COX-1 enzyme. Immediately following blood clotting, platelets are activated through a thrombin-mediated mechanism. This reaction results in the production of thromboxane B2 (TxB2) via activation of COX-1. Thus, the effect of test compounds on TxB2 levels following blood clotting can be examined and used as an index for COX-1 activity. Therefore, the degree of selectivity by the test compound can be determined by measuring the levels of PGE2 after LPS induction (COX-2) and […] following blood clotting (COX-1) in the same assay.
B. COX-1 (Clotting-induced TxB2 production)
Fresh blood is collected into vacutainers containing no anticoagulants. […] The tubes are vortexed and incubated at 37° C. for 1 hour to allow blood to clot. At the end of incubation, serum is obtained by centrifugation (12,000×g for 5 min.). A 100 μL aliquot of serum is mixed with 400 μL of methanol for protein precipitation. The supernatant is obtained and is assayed for T×B2 using a enzyme immunoassay kit (Cayman, #519031) according to the manufacturer's instruction.

For experiment [2], the target named is T1, COX-2 (Homo sapiens, UniProt P35354).
T1 sequence (P35354 18-604): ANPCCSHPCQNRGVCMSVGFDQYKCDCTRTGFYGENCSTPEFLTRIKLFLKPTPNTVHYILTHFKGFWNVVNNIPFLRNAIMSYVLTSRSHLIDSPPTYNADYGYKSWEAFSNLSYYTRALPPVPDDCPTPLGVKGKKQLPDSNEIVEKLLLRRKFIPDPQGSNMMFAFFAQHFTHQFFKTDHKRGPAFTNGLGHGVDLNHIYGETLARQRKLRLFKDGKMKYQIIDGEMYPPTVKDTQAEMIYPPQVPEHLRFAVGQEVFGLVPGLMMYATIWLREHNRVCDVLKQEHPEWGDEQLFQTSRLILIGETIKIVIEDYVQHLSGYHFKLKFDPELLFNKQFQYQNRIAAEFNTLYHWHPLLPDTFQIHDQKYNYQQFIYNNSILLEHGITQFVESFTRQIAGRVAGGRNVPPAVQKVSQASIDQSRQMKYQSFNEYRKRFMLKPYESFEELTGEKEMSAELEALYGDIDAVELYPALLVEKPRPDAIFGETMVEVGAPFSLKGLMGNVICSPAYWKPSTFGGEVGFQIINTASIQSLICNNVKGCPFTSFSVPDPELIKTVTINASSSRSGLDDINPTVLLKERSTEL
Put plainly: Whole cell assay for COX-2 using CHO transfected cell line (CHO [hCOX-2]), PGE2. The settings on record: CHO [hCOX-2] cells, 10 μM AA. The format is cell-based. Also on record: expressed in transfected cells; host or cells: CHO (Chinese hamster ovary), stably transfected with pCDNAIII vector; CHO [hCOX-2]. As to the method:
Chinese hamster ovary (CHO) cell lines which have been stably transfected with an eukaryotic expression vector pCDNAIII containing either the human COX-1 or COX-2 cDNA's are used for the assay. These cell lines are referred to as CHO [hCOX-1] and CHO [hCOX-2], respectively. […] Drugs to be tested are dissolved in DMSO to 66.7-fold the highest test drug concentration. […] Cells (0.3×10^6 cells in 200 p) are preincubated with 3 AIl of the test drug or DMSO vehicle for 15 min at 37° C. […] Cells are then challenged in the presence or absence of drug with the AA/HBSS solution to yield a final concentration of 0.5 μM AA in the CHOhCOX-1] assay and a final concentration of 10 μM AA in the CHO [hCOX-2] assay. […] The samples are centrifuged at 300×g at 4° C. for 10 min, and an aliquot of the clarified supernatant is appropriately diluted for the determination of PGE2 levels using an enzyme-liked immunoassay for PGE2 (Correlate PGE2 enzyme immunoassay kit, Assay Designs, Inc.). Cyclooxygenase activity in the absence of test compounds is determined as the difference in PGE2 levels of cells challenged with arachidonic acid versus the PGE2 levels in cells mock-challenged with ethanol vehicle. Inhibition of PGE2 synthesis by test compounds is calculated as a percentage of the activity in the presence of drug versus the activity in the positive control samples.
In the assay, inhibition is determined by measuring the amount of prostaglandin E2 (PGE2) synthesized in the presence of arachidonic acid, cyclooxygenase-I or cyclooxygenase-2 and a putative inhibitor.

Sequence of COX-1 (P23219 24-599): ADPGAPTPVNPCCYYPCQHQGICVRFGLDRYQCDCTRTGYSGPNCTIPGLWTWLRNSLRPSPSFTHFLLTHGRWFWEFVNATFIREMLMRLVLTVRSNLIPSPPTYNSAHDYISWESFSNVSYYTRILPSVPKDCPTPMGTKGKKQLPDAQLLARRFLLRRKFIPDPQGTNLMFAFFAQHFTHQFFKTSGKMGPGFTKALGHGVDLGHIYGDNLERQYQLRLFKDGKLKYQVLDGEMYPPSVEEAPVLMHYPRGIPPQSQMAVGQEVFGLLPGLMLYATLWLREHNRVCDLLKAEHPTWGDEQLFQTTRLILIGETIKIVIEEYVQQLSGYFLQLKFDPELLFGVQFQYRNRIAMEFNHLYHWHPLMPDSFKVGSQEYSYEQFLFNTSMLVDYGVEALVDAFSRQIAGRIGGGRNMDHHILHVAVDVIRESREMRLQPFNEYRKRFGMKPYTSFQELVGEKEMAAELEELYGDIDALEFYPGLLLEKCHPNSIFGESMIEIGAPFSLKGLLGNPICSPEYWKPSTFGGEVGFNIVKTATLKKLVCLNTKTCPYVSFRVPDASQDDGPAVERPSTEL

One may read the IC50 as the concentration that gives 50% inhibition. With `CS(=O)(=O)c1ccc(-c2cnn(Cc3ccccc3)c(=O)c2-c2cccnc2)cc1` [Example 28, 2-Benzyl-5-(4-methylsulfonyl)phenyl-4-(3-pyridyl)-2H-pyridazin-3-one], the IC50 in experiment [1] was 56 µM; in experiment [2], 0.13 µM.
